Experiments:
Assay in all cases: NCI-60 SRB growth inhibition, one-dose and five-dose
Assay type in all cases: cell-based
[1] = tested on: CCRF-CEM; conditions: Homo sapiens, read-out: percent growth inhibition
[2] = tested on: K-562; conditions: Homo sapiens, K562, read-out: percent growth inhibition
[3] = tested on: RPMI-8226; conditions: Homo sapiens, RPMI-8226, read-out: percent growth inhibition
[4] = tested on: A549/ATCC; conditions: Homo sapiens, A549, read-out: percent growth inhibition
[5] = tested on: EKVX; conditions: Homo sapiens, read-out: percent growth inhibition
[6] = tested on: HOP-62; conditions: Homo sapiens, HOP-62, read-out: percent growth inhibition
[7] = tested on: HOP-92; conditions: Homo sapiens, HOP-92, read-out: percent growth inhibition
[8] = tested on: NCI-H226; conditions: Homo sapiens, NCI-H226, read-out: percent growth inhibition
[9] = tested on: NCI-H23; conditions: Homo sapiens, NCI-H23, read-out: percent growth inhibition
[10] = tested on: NCI-H322M; conditions: Homo sapiens, read-out: percent growth inhibition
[11] = tested on: NCI-H460; conditions: Homo sapiens, NCI-H460, read-out: percent growth inhibition
[12] = tested on: NCI-H522; conditions: Homo sapiens, NCI-H522, read-out: percent growth inhibition
[13] = tested on: HCC-2998; conditions: Homo sapiens, HCC 2998, read-out: percent growth inhibition
[14] = tested on: HT29; conditions: Homo sapiens, HT-29, read-out: percent growth inhibition
[15] = tested on: KM12; conditions: Homo sapiens, KM12, read-out: percent growth inhibition
[16] = tested on: SW-620; conditions: Homo sapiens, SW-620, read-out: percent growth inhibition
[17] = tested on: SF-268; conditions: Homo sapiens, SF-268, read-out: percent growth inhibition
[18] = tested on: SNB-75; conditions: Homo sapiens, SNB-75, read-out: percent growth inhibition
[19] = tested on: U251; conditions: Homo sapiens, U-251, read-out: percent growth inhibition
[20] = tested on: LOX IMVI; conditions: Homo sapiens, read-out: percent growth inhibition
[21] = tested on: MALME-3M; conditions: Homo sapiens, read-out: percent growth inhibition
[22] = tested on: M14; conditions: Homo sapiens, M14, read-out: percent growth inhibition
[23] = tested on: MDA-MB-435; conditions: Homo sapiens, MDA-MB-435, read-out: percent growth inhibition
[24] = tested on: SK-MEL-2; conditions: Homo sapiens, SK-MEL-2, read-out: percent growth inhibition
[25] = tested on: SK-MEL-28; conditions: Homo sapiens, SK-MEL-28, read-out: percent growth inhibition
[26] = tested on: SK-MEL-5; conditions: Homo sapiens, SK-MEL-5, read-out: percent growth inhibition
[27] = tested on: UACC-62; conditions: Homo sapiens, UACC-62, read-out: percent growth inhibition
[28] = tested on: OVCAR-8; conditions: Homo sapiens, OVCAR-8, read-out: percent growth inhibition
[29] = tested on: NCI/ADR-RES; conditions: Homo sapiens, read-out: percent growth inhibition
[30] = tested on: SK-OV-3; conditions: Homo sapiens, SK-OV-3, read-out: percent growth inhibition
[31] = tested on: 786-0; conditions: Homo sapiens, 786-0, read-out: percent growth inhibition
[32] = tested on: A498; conditions: Homo sapiens, A498, read-out: percent growth inhibition
[33] = tested on: ACHN; conditions: Homo sapiens, read-out: percent growth inhibition
[34] = tested on: CAKI-1; conditions: Homo sapiens, CAKI-1, read-out: percent growth inhibition
[35] = tested on: SN12C; conditions: Homo sapiens, read-out: percent growth inhibition
[36] = tested on: TK-10; conditions: Homo sapiens, TK-10, read-out: percent growth inhibition
[37] = tested on: PC-3; conditions: Homo sapiens, PC-3, read-out: percent growth inhibition
[38] = tested on: DU-145; conditions: Homo sapiens, DU-145, read-out: percent growth inhibition
[39] = tested on: MCF7; conditions: Homo sapiens, MCF7, read-out: percent growth inhibition
[40] = tested on: BT-549; conditions: Homo sapiens, BT-549, read-out: percent growth inhibition
[41] = tested on: T-47D; conditions: Homo sapiens, T47D, read-out: percent growth inhibition
[42] = tested on: MDA-MB-468; conditions: Homo sapiens, MDA-MB-468, read-out: percent growth inhibition
[43] = tested on: SR; conditions: Homo sapiens, read-out: percent growth inhibition

CC(=O)Nc1ccc(/C=C/C(=O)c2cccc(NCc3ccc4oc(=O)ccc4c3)c2)cc1 [Compound 5k, (E)-N-(4–(3-oxo-3–(3-(((2-oxo-2H-chromen-6-yl)methyl)amino)phenyl)prop-1-en-1-yl)phenyl)acetamide]
inhibition at 10 µM [1]: 87.9%
inhibition at 10 µM [2]: 93.3%
inhibition at 10 µM [3]: 80.5%
inhibition at 10 µM [4]: 21.5%
inhibition at 10 µM [5]: 64.5%
inhibition at 10 µM [6]: 10.8%
inhibition at 10 µM [7]: 3.27%
inhibition at 10 µM [8]: 35.7%
inhibition at 10 µM [9]: 38.6%
inhibition at 10 µM [10]: 15.3%
inhibition at 10 µM [11]: 22.7%
inhibition at 10 µM [12]: 36.3%
inhibition at 10 µM [13]: 10%
inhibition at 10 µM [14]: 15.6%
inhibition at 10 µM [15]: 34.4%
inhibition at 10 µM [16]: 52.2%
inhibition at 10 µM [17]: 18.2%
inhibition at 10 µM [18]: 25.4%
inhibition at 10 µM [19]: 49%
inhibition at 10 µM [20]: 57.8%
inhibition at 10 µM [21]: 37.8%
inhibition at 10 µM [22]: 30.6%
inhibition at 10 µM [23]: 22.1%
inhibition at 10 µM [24]: 35.7%
inhibition at 10 µM [25]: 21.2%
inhibition at 10 µM [26]: 76.3%
inhibition at 10 µM [27]: 67.5%
inhibition at 10 µM [28]: 34.9%
inhibition at 10 µM [29]: 68.9%
inhibition at 10 µM [30]: 3.88%
inhibition at 10 µM [31]: 24.2%
inhibition at 10 µM [32]: 20.4%
inhibition at 10 µM [33]: 34.7%
inhibition at 10 µM [34]: 37.7%
inhibition at 10 µM [35]: 29.5%
inhibition at 10 µM [36]: 25.8%
inhibition at 10 µM [37]: 27.6%
inhibition at 10 µM [38]: 18.3%
inhibition at 10 µM [39]: 73.6%
inhibition at 10 µM [40]: 55.8%
inhibition at 10 µM [41]: 66%
inhibition at 10 µM [42]: 72.9%

CC(=O)Nc1ccc(CNc2cccc(C(=O)/C=C/c3c[nH]cn3)c2)cc1 [Compound 5l, (E)-N-(4-(((3–(3-(1H-imidazol-4-yl)acryloyl)phenyl)amino)methyl)phenyl)acetamide]
inhibition at 10 µM [1]: 98%
inhibition at 10 µM [2]: 80.8%
inhibition at 10 µM [3]: 38%
inhibition at 10 µM [4]: 7.54%
inhibition at 10 µM [5]: 24.8%
inhibition at 10 µM [6]: 5.06%
inhibition at 10 µM [7]: 12.3%
inhibition at 10 µM [8]: 21.7%
inhibition at 10 µM [9]: 11.5%
inhibition at 10 µM [10]: 12.8%
inhibition at 10 µM [11]: 4.86%
inhibition at 10 µM [12]: 64.2%
inhibition at 10 µM [13]: -2.31%
inhibition at 10 µM [14]: 8.22%
inhibition at 10 µM [15]: 43.6%
inhibition at 10 µM [16]: 24.8%
inhibition at 10 µM [17]: 19.4%
inhibition at 10 µM [18]: 11.7%
inhibition at 10 µM [19]: 48.3%
inhibition at 10 µM [20]: 45.3%
inhibition at 10 µM [21]: 26.4%
inhibition at 10 µM [22]: 13.5%
inhibition at 10 µM [23]: 11%
inhibition at 10 µM [24]: 12.8%
inhibition at 10 µM [25]: 13.4%
inhibition at 10 µM [26]: 16%
inhibition at 10 µM [27]: 34%
inhibition at 10 µM [28]: 8.86%
inhibition at 10 µM [29]: -1.58%
inhibition at 10 µM [30]: -9.94%
inhibition at 10 µM [31]: 11.6%
inhibition at 10 µM [32]: 11.1%
inhibition at 10 µM [33]: 15.4%
inhibition at 10 µM [34]: 12.4%
inhibition at 10 µM [35]: 19.8%
inhibition at 10 µM [36]: 12.9%
inhibition at 10 µM [37]: 7.64%
inhibition at 10 µM [38]: 11.1%
inhibition at 10 µM [39]: 81.8%
inhibition at 10 µM [40]: 34.9%
inhibition at 10 µM [41]: 56.9%
inhibition at 10 µM [42]: 84%

O=C(/C=C/c1c[nH]cn1)c1cccc(NCc2ccc(CO)cc2)c1 [Compound 5m, (E)-1–(3-((4-(hydroxymethyl)benzyl)amino)phenyl)-3-(1H-imidazol-4-yl)prop-2-en-1-one]
inhibition at 10 µM [1]: 45.6%
inhibition at 10 µM [2]: 80.4%
inhibition at 10 µM [3]: 63.3%
inhibition at 10 µM [43]: 92.9%
inhibition at 10 µM [4]: 14.1%
inhibition at 10 µM [5]: 32.2%
inhibition at 10 µM [6]: 13.9%
inhibition at 10 µM [7]: 22.2%
inhibition at 10 µM [8]: 14.6%
inhibition at 10 µM [9]: 18.6%
inhibition at 10 µM [10]: 13%
inhibition at 10 µM [11]: 6.83%
inhibition at 10 µM [12]: 89.4%
inhibition at 10 µM [13]: -0.68%
inhibition at 10 µM [14]: 24.9%
inhibition at 10 µM [15]: 9.57%
inhibition at 10 µM [16]: 23.8%
inhibition at 10 µM [17]: 8.96%
inhibition at 10 µM [19]: 56%
inhibition at 10 µM [20]: 58.6%
inhibition at 10 µM [21]: 23.1%
inhibition at 10 µM [22]: 15%
inhibition at 10 µM [23]: 8.36%
inhibition at 10 µM [25]: 6.66%
inhibition at 10 µM [26]: 21.7%
inhibition at 10 µM [27]: 30.5%
inhibition at 10 µM [28]: 15.4%
inhibition at 10 µM [29]: 6.75%
inhibition at 10 µM [30]: -2.54%
inhibition at 10 µM [31]: 11.7%
inhibition at 10 µM [32]: 2.28%
inhibition at 10 µM [33]: 16.6%
inhibition at 10 µM [34]: 8.35%
inhibition at 10 µM [35]: 19.9%
inhibition at 10 µM [36]: 6.96%
inhibition at 10 µM [37]: 11.3%
inhibition at 10 µM [38]: 6.04%
inhibition at 10 µM [39]: 66%
inhibition at 10 µM [40]: 34%
inhibition at 10 µM [41]: 47.8%
inhibition at 10 µM [42]: 80.5%

O=C(/C=C/c1c[nH]cn1)c1cccc(NCc2ccc3oc(=O)ccc3c2)c1 [Compound 5n, (E)-6-(((3–(3-(1H-imidazol-4-yl)acryloyl)phenyl)amino)methyl)-2H-chromen-2-one]
inhibition at 10 µM [1]: 62.1%
inhibition at 10 µM [2]: 87.2%
inhibition at 10 µM [3]: 86.9%
inhibition at 10 µM [43]: 98.1%
inhibition at 10 µM [4]: 25.6%
inhibition at 10 µM [5]: 45.6%
inhibition at 10 µM [6]: 24.3%
inhibition at 10 µM [7]: 25.8%
inhibition at 10 µM [8]: 28.2%
inhibition at 10 µM [9]: 28.3%
inhibition at 10 µM [10]: 18.1%
inhibition at 10 µM [11]: 23.4%
inhibition at 10 µM [12]: 138%
inhibition at 10 µM [13]: 16.8%
inhibition at 10 µM [14]: 63.2%
inhibition at 10 µM [15]: 25.1%
inhibition at 10 µM [16]: 31.8%
inhibition at 10 µM [17]: 10.9%
inhibition at 10 µM [19]: 68.2%
inhibition at 10 µM [20]: 75.9%
inhibition at 10 µM [21]: 37.8%
inhibition at 10 µM [22]: 24.5%
inhibition at 10 µM [23]: 14.5%
inhibition at 10 µM [25]: 13.3%
inhibition at 10 µM [26]: 30.6%
inhibition at 10 µM [27]: 45.2%
inhibition at 10 µM [28]: 32.5%
inhibition at 10 µM [29]: 10.6%
inhibition at 10 µM [30]: -4.46%
inhibition at 10 µM [31]: 31.8%
inhibition at 10 µM [32]: 4.82%
inhibition at 10 µM [33]: 24.8%
inhibition at 10 µM [34]: 8.01%
inhibition at 10 µM [35]: 29.8%
inhibition at 10 µM [36]: 30%
inhibition at 10 µM [37]: 17.1%
inhibition at 10 µM [38]: 20.9%
inhibition at 10 µM [39]: 90.1%
inhibition at 10 µM [40]: 22.9%
inhibition at 10 µM [41]: 54%
inhibition at 10 µM [42]: 83.2%
